Among the data in patent US20110071129A1, “SPIRODIAMINE-DIARYL KETOXIME DERIVATIVE” (priority 2008, published 2011) are IC50 values, retold here.

This assay concerns the target T1, human MCH-1R (Homo sapiens, UniProt Q99705).
T1 construct: expressed in transfected cells; host or cells: CHO-K1 (American Type Culture Collection), vector pEF/myc/cyto; membranes used
Briefly: MCH binding inhibition test. The conditions noted are these: inhibition of specific [125I]MCH (50 pM) binding; membranes of MCH-1R expressing CHO-K1 cells; 25° C., one hour. The protocol: A human MCH-1R encoding cDNA sequence [FEBS Letters, Vol. 398, 253 (1996); Biochimica et Biophisica Acta, Vol. 1401, 216 (1998)] was cloned to a plasmid vector pEF/myc/cyto (by Invitrogen Corporation). The obtained expression vector was transfected to host cells CHO-K1 (American Type Culture Collection) using Lipofectamine Plus Reagent (by Life Technology Inc.) to provide MCH-1R expression cells.
Membrane samples prepared from the MCH-1R expression cells were incubated with each test compound and 50 pM of [^125I]MCH (by NEN Co.), in an assay buffer (50 mM Tris buffer comprising 10 mM magnesium chloride, 2 mM ethylenediamine tetraacetate, 0.01% bacitracin and 0.2% bovine serum albumin; pH 7.4) at 25° C. for an hour, followed by filtration through a glass filter GF/C (by Wattman Co.). After washing the glass filter with 50 mM Tris buffer (pH 7.4) comprising 10 mM magnesium chloride, 2 mM ethylenediamine tetraacetate and 0.04% Tween-20, the radioactive activity on the glass filter was measured. The non-specific binding was measured in the presence of 1 μM human MCH, and the 50% inhibition concentration (IC50 value) of each test compound to the specific [^125I]MCH binding was determined.

T1 sequence (Q99705 whole entry): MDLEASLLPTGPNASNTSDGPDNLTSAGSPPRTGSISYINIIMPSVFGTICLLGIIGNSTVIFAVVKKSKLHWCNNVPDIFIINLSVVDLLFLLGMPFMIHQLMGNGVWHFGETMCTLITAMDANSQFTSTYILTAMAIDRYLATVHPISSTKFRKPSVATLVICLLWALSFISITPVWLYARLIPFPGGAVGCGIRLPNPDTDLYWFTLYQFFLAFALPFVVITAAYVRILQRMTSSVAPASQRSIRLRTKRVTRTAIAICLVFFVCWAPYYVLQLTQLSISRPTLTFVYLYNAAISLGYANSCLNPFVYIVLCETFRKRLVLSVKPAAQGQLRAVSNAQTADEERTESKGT

Turning to `CCO/N=C(\c1ccc(F)c(F)c1)c1ccc(CN2CC3(CCN(c4ccc(F)nc4)C3)C2)cn1` [Example 1-10, (E)-(3,4-difluorophenyl)(5-{[6-(6-fluoro-3-pyridinyl)-2,6-diazaspiro[3.4]oct-2-yl]methyl}-2-pyridinyl)methanone O-ethyloxime], the IC50 stood at 7.6 nM.

`CCO/N=C(\c1ccc(F)c(F)c1)c1ccc(CN2CCC3(CCN(c4ccnnc4)C3)C2)cn1` (centres unmarked) [Example 2-3, (E)-(3,4-difluorophenyl)(5-{[7-(4-pyrazinyl)-2,7-diazaspiro[4.4]non-2-yl]methyl}-2-pyridinyl)methanone O-ethyloxime] gave an IC50 of 3.2 nM.

`CCO/N=C(\c1ccc(F)c(F)c1)c1ccc(CN2CC3(C2)CN(c2ccnc(C)c2)C3)cn1` [Example 2-24, (E)-(3,4-difluorophenyl)(5-{[6-(2-methyl-4-pyridinyl)-2,6-diazaspiro[3.3]hept-2-yl]methyl}-2-pyridinyl)methanone O-ethyloxime] returned a concentration for half-maximal inhibition (IC50) of 2.4 nM.

Take `CCO/N=C(\c1ccc(F)c(F)c1)c1ccc(CN2CC3(C2)CN(c2ccn4ccnc4c2)C3)cn1` [Example 2-40, (E)-(3,4-difluorophenyl){5-[(6-imidazo[1,2-a]pyridin-7-yl-2,6-diazaspiro[3.3]hept-2-yl)methyl]-2-pyridinyl}methanone O-ethyloxime]: the IC50 worked out at 0.9 nM.

On to `CCCc1cnc2cc(N3CC4(CN(Cc5ccc(/C(=N/OCC)c6ccc(F)c(F)c6)nc5)C4)C3)ccn12` [Example 2-44, (E)-(3,4-difluorophenyl)(5-{[6-(3-propylimidazo[1,2-a]pyridin-7-yl)-2,6-diazaspiro[3.3]hept-2-yl]methyl}-2-pyridinyl)methanone O-ethyloxime], for which the IC50 was found to be 0.36 nM.

By IC50 is commonly meant the point on the concentration scale where inhibition reaches its midpoint. A high value points to a need for much substance.
